These results are taken from patent US4867973A, “Antibody-therapeutic agent conjugates” (Cytogen Corporation, priority 1984, dated 1989).

Ends that are not written are not given here. Peptide text beside a SMILES is read from it. * marks the point of attachment. AMC = Cc1cc(=O)oc2cc(N*)ccc12; Boc = CC(C)(C)OC(=O)*

What all share (assay type): biochemical
Assay [1] has as its system trypsin. Kind of assay: Fluorescence assay of AMC release from peptide linker by trypsin. Conditions: for Cleavage Rates, Trypsin: trypsin 0.1 ug/ml, peptide 5 uM. On the procedure: (§1) The rates of cleavage for the peptide linker were measured by fluorescence quenching using a Perkin Elmer 650-10S fluorescence spectrometer (Perkin-Elmer Corporation, Norwalk, Conn.). The excitation and emission wavelengths were 380 nm and 460 nm, respectively and the temperature was maintained at 25° C. with a Lauda k-2/R circulating water bath (Brinkmann Instruments, Westbury, N.Y.).
(§2) The initial concentrations of Gly-Gly-Arg-AMC were determined by optical density, Σ^1M325 =16,000. The solutions were adjusted to 1 uM concentrations. One ml of the 1 uM solution in PBS, pH 7.4 was placed in a cuvette. The appropriate amounts of enzyme (1 ug/ml trypsin or 10 ug/ml urokinase) was then added at room temperature with stirring using a motor-driven syringe and the reaction kinetics were followed for several minutes. The fluorescence intensity of a known concentration of free AMC was established and used as a baseline to determine the change in units per nM/minute of free AMC in this fluorescence assay system.
(§3) In another experiment, the Gly-Gly-Arg-AMC concentration was 100 uM and the trypsin used at 100 ug/ml. In another embodiment of the present invention, the Gly-Gly-Arg-AMC was conjugated to oxidized dextran which can serve as a spacer as described in Section 5.4.3 (10,000 molecular weight) (Pharmacia Fine Chemicals, Piscataway, N.J.) by the methods of the present invention using a molar ratio of Gly-Gly-Arg-AMC to dextran of 58:1. Dextran-Gly-Gly-Arg-AMC was separated with a 6.5 ml Sephadex® G-25 column (Pharmacia Fine Chemicals, Piscataway, N.J.).
(§4) Peptide sequences that are analogs of complement components were cleaved by trypsin (0.1 ug/ml), urokinase (0.1 ug/ml), plasmin (1 ug/ml) and purified complement components C4,2 and C1s (40 ug/ml). The data in Table V compare the cleavage rates (nM/minute) of these sequences. The fluorescence assay described in Section 8 for cleavage of Gly-Gly-Arg-AMC was used here. Complement components were purified and assayed by the method of Tack and Prahl (Biochem., 1976, 15:4513-4521).

In assay [2] the target is T1, urokinase (Homo sapiens, UniProt P00749). As to the kind of experiment: Fluorescence assay of AMC release from peptide linker by urokinase. Conditions: urokinase 0.1 ug/ml; peptide 5 uM. How it is done:
as §1, §2, §3, §4

The target in assay [3] is T2, purified complement component C1s (Homo sapiens, UniProt P09871).
T2 construct: from tissue
T2 sequence (P09871 16-688): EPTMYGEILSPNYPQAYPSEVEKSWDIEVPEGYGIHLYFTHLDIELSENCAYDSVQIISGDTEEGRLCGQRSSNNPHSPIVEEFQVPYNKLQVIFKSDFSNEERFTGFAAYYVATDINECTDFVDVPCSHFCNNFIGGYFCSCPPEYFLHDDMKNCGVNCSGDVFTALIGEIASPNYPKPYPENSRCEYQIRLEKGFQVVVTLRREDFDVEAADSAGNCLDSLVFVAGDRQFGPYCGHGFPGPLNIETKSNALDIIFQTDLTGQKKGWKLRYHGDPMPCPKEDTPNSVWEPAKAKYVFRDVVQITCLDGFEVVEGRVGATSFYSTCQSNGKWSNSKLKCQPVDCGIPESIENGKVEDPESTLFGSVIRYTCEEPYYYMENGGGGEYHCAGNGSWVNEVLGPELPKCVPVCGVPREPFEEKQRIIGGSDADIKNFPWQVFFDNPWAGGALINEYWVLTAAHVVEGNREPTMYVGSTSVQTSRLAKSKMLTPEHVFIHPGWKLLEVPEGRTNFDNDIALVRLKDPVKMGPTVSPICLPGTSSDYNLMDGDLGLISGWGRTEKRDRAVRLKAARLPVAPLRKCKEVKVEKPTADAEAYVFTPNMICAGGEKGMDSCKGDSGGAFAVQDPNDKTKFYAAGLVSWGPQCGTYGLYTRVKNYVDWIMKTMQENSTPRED
As to the kind of experiment: Fluorescence assay of AMC release by purified complement component C1s. Conditions: 10 ug/ml enzyme; peptide 5 uM. From the text: The data in Table V compare the cleavage rates (nM/minute) of these sequences. The fluorescence assay described in Section 8 for cleavage of Gly-Gly-Arg-AMC was used here. Complement components were purified and assayed by the method of Tack and Prahl (Biochem., 1976, 15:4513-4521).

Assay [4] deals with T3, purified complement component C4,2 (Homo sapiens, UniProt P06681).
T3 construct: from tissue
Kind of assay: Fluorescence assay of AMC release by purified complement component C4,2. Conditions: 40 ug/ml enzyme; peptide 5 uM. On the procedure: as §4

Assay [5] deals with plasmin (Homo sapiens, UniProt P00747). As to the kind of experiment: Fluorescence assay of AMC release by plasmin. Conditions: plasmin 1 ug/ml; peptide 5 uM. On the procedure: as §4
The subject of assay [6] is trypsin. Kind of assay: Release of 125I-Tyr from radiolabeled peptide by trypsin (agarose gel electrophoresis or TLC). Conditions: trypsin 1 ug/ml; substrate 0.1 uM; 125I-Tyr release. How it is done:
(§5) For the purposes of the present example, the tetrapeptide Glycine-Glycine-Arginine-Tyrosine was radiolabeled at the amino acid residue tyrosine with 125 Iodine (125 I) (Greenwood et al. 1963, Biochem. J. 88: 114-120). This radiolabeled compound is hereinafter referred to as Gly-Gly-Arg-Tyr* (wherein the * denotes ^125 I).
(§6) The peptide Gly-Gly-Arg-Tyr* was assayed for the release of the 125I labeled tyrosine residue by agarose gel electrophoresis or thin-layer chromatography (TLC, Sono and Asakura, 1974, Biochem 13:4386-4394). Briefly, appropriate amounts of enzyme were added to a reaction tube containing 0.1 uM Gly-Gly-Arg-Tyr in PBS, pH 7.4. The mixture was incubated at 37° C. for 30 minutes. Three ul of this reaction mixture were then applied to an agarose gel (1%) and run at high voltage (120 V/cm) in Barbitol Buffer, 0.025 M sodium diethylbarbituate HCl buffer, pH 8.6. Three ul of bromophenol blue solution was used as a marker to determine the end of the run. The agarose gel was then cut into sections and counted in a LKB 1271 gamma counter (LKB Instruments, Gaithersburg, Md.) to determine if the Tyr remained at the origin or migrated through the gel. Alternatively, samples were separated and identified by TLC as described supra. […] The plate was dried and divided into ten sections which were counted in a gamma counter. […]

Assay [7] concerns the target T1, urokinase. As to the kind of experiment: Release of 125I-Tyr from radiolabeled peptide by urokinase (agarose gel electrophoresis or TLC). Conditions: urokinase 10 ug/ml; substrate 0.1 uM; 125I-Tyr release. On the procedure:
as §5, §6

T3 sequence (P06681 244-752 limits assumed): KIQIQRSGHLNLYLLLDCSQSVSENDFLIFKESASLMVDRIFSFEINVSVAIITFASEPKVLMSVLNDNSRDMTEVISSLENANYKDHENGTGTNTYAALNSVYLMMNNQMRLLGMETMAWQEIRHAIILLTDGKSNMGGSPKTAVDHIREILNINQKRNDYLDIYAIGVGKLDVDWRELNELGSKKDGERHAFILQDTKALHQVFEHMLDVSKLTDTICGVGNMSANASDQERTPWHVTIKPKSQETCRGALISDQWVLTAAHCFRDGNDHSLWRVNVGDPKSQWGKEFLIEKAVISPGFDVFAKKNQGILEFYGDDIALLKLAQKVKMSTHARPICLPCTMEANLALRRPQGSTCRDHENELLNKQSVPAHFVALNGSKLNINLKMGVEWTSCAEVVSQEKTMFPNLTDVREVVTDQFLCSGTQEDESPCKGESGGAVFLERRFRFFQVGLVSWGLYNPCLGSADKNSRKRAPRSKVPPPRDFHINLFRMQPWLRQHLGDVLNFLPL
T3 sequence (P0C0L4 20-675 partner limits assumed): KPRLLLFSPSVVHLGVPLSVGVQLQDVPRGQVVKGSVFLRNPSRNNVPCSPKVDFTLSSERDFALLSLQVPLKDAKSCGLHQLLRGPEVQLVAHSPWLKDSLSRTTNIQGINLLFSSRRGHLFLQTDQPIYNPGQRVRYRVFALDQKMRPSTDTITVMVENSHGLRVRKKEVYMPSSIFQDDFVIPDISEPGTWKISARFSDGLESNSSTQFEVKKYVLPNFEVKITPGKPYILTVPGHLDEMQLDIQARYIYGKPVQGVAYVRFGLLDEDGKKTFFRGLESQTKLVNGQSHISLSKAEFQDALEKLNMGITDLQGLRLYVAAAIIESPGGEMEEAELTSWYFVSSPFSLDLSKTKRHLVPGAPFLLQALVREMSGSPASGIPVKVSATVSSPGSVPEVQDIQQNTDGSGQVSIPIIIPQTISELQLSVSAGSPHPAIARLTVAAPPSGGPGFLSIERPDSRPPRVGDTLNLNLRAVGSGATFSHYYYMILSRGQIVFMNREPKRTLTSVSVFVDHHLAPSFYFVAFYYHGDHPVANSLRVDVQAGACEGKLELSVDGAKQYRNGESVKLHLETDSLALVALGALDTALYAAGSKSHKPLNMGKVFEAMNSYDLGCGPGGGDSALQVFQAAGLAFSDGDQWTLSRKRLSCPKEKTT
T3 sequence (P0C0L4 757-1446 partner limits assumed): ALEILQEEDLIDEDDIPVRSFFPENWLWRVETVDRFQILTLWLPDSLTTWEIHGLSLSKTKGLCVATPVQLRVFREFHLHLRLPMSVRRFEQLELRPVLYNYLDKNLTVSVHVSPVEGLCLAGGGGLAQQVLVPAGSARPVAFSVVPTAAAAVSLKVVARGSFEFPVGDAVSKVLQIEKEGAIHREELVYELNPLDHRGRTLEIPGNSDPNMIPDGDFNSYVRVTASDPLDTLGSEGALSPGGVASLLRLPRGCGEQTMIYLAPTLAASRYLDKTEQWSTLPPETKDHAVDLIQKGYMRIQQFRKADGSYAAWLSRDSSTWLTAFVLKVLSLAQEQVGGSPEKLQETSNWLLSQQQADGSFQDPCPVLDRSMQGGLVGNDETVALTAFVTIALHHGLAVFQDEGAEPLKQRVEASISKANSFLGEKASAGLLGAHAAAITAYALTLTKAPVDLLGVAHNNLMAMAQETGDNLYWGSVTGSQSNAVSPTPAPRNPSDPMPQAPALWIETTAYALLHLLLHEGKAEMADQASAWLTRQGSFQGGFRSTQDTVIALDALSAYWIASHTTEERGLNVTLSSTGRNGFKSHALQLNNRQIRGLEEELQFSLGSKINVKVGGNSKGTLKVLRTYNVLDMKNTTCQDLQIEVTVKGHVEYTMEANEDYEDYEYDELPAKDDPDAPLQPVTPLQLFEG
T3 sequence (P0C0L4 1454-1744 partner limits assumed): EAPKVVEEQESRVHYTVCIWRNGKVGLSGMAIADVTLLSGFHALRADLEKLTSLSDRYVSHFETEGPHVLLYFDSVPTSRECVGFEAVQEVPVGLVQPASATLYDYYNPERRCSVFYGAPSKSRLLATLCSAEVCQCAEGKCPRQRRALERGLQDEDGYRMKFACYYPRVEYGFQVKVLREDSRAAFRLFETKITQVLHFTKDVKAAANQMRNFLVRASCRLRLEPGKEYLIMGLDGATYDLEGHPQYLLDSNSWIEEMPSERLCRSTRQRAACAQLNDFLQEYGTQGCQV
Chain of plasmin (P00747 581-810 limits assumed, species assumed): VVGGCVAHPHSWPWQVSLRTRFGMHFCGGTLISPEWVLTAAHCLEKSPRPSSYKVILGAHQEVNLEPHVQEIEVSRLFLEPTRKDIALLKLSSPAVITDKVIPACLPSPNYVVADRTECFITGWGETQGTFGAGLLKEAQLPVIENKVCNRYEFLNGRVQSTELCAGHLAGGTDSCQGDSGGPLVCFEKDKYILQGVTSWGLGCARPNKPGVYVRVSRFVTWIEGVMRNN
Chain of plasmin (P00747 97-580 partner limits assumed, species assumed): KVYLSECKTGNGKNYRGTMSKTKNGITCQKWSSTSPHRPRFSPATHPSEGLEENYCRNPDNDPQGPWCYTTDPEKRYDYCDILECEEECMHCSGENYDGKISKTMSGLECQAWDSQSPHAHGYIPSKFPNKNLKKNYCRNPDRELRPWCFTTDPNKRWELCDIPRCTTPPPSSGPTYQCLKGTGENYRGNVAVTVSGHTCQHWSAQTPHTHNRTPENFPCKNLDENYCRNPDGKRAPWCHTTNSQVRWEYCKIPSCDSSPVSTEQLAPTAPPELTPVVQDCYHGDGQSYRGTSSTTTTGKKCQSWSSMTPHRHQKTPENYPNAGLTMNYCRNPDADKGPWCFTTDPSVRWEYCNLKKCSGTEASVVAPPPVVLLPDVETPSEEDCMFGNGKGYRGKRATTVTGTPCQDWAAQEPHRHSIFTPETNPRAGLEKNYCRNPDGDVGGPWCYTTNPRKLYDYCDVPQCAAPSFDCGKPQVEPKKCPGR

Turning to `Cc1cc(=O)oc2cc(NC(=O)[C@H](CCCNC(=N)N)NC(=O)[C@H](CCCNC(=N)N)NC(=O)[C@H](CCC(=O)O)NC(=O)OC(C)(C)C)ccc12` [Boc-Glu-Arg-Arg-AMC] (Boc-Glu-Arg-Arg-{AMC}), the “Cleavage Rates, Trypsin” value in assay [1] stood at 3.7 nM/min. Moreover, the “Cleavage Rates, Urokinase” value in assay [2] is on record as 0 nM/min.
For `Cc1cc(=O)oc2cc(NC(=O)[C@H](CCCNC(=N)N)NC(=O)CNC(=O)[C@H](CC(C)C)NC(=O)OC(C)(C)C)ccc12` [Boc-Leu-Gly-Arg-AMC, Boc-leu-gly-arg-7-amino-4-methylcoumarin] (Boc-Leu-Gly-Arg-{AMC}) the same measures were 750 nM/min and 3.7 nM/min.
Taken in the same sequence, the figures for `Cc1cc(=O)oc2cc(NC(=O)[C@H](CCCNC(=N)N)NC(=O)[C@H](CO)NC(=O)[C@H](Cc3ccccc3)NC(=O)OC(C)(C)C)ccc12` [Boc-Phe-Ser-Arg-AMC] (Boc-Phe-Ser-Arg-{AMC}) were 17 nM/min and 0.044 nM/min.
Taken in the same sequence, the figures for `Cc1cc(=O)oc2cc(NC(=O)[C@H](CCCNC(=N)N)NC(=O)CNC(=O)[C@@H](NC(=O)OC(C)(C)C)C(C)C)ccc12` [Boc-Val-Gly-Arg-AMC] (Boc-Val-Gly-Arg-{AMC}) were 720 nM/min and 2.8 nM/min.
Consider `Cc1cc(=O)oc2cc(NC(=O)[C@H](CCCNC(=N)N)NC(=O)[C@@H]3CCCN3C(=O)[C@@H](NC(=O)OC(C)(C)C)C(C)C)ccc12` [Boc-Val-Pro-Arg-AMC] (Boc-Val-Pro-Arg-{AMC}), for which the “Cleavage Rates, Trypsin” value in assay [1] is on record as 3.8 nM/min. Moreover, in assay [2], the “Cleavage Rates, Urokinase” value was 0 nM/min.
Taken in the same sequence, the figures for `Cc1cc(=O)oc2cc(NC(=O)[C@H](CCCNC(=N)N)NC(=O)CNC(=O)[C@@H](N)CCC(=O)O)ccc12` [Glu-Gly-Arg-AMC] (H-Glu-Gly-Arg-{AMC}) were 140 nM/min and 35 nM/min.
For `Cc1cc(=O)oc2cc(NC(=O)[C@H](CCCCN)NC(=O)[C@H](CCCCN)NC(=O)[C@@H](N)CCC(=O)O)ccc12` [Glu-Lys-Lys-AMC] (H-Glu-Lys-Lys-{AMC}) the same measures were 0.62 nM/min and 0 nM/min.
Regarding `Cc1cc(=O)oc2cc(NC(=O)[C@H](CCCNC(=N)N)NC(=O)CNC(=O)CN)ccc12` [Gly--Gly--Arg--AMC, Gly-Gly-Arg-AMC], in assay [3], the “Cleavage Rates, complement component (column head drawing 18)” value was 0.9 to 1.2 nM/min. In assay [1], the “Cleavage Rates, Trypsin” value turned out to be 450 nM/min. Besides, in assay [1] (trypsin 100 ug/ml, substrate 100 uM), the “Cleavage Rates Released Group, Trypsin” value is 20,000 nM/min. Besides, the “Cleavage Rates, complement component (column head drawing 17)” value in assay [4] was in the range of 0.9 to 1.2 nM/min. Further, the “Cleavage Rates, Plasmin” value in assay [5] is on record as 0.005 nM/min. Besides, the “Cleavage Rates, Urokinase” value in assay [2] worked out at 27 nM/min.
As to `Cc1cc(=O)oc2cc(NC(=O)[C@H](CCCNC(=N)N)NC(=O)[C@H](Cc3ccccc3)NC(=O)[C@@H]3CCCN3)ccc12` [Pro-Phe-Arg-AMC] (H-Pro-Phe-Arg-{AMC}), the “Cleavage Rates, Trypsin” value in assay [1] is listed as 0 nM/min. The “Cleavage Rates, Urokinase” value in assay [2] worked out at 0 nM/min.
As for “Glycine-Glycine-Arginine-Tyrosine [Gly--Gly--Arg--Tyr*]”, the “Cleavage Rates Released Group, Trypsin” value in assay [6] was 4 nM/min. Moreover, the “Cleavage Rates Released Group, Urokinase” value in assay [7] is “.01 nM/min”.
Taken in the same sequence, the figures for “PGRVVGY [Pro--Gly--Arg--Val--Val--Gly--Tyr*, plasminogen analog]” were 3 nM/min and “.01 nM/min”.
